Source: patent US4596810A, “Emulsions of perfluoro octahydro quinolizines useful as blood substitutes” (The Green Cross Corporation, priority 1984, dated 1986)

Key:
Wister-strain male rats = assay: Acute Toxicity Test (intravenous); type: in vivo, rat; settings: 100 ml/kg-body weight, isotonized emulsion (Table 4), observed one week
Description: The acute toxicity test on the preparations of the present invention was carried out using the preparations of the present invention shown in Table 4 which had been physiologically isotonized. The test animals used were Wister-strain male rats (weighing 100-120 g).

[1] = Distribution of Perfluoro-compound in Organs (gas chromatography); type: in vivo, Wister-strain male rats; settings: for Residual Rate of perfluorobicyclo compound: 3 Months, 4 g/kg tail vein
Text: The content of perfluoro-4-methyloctanhydroquinolidine uptake in each organ 1, 2 and 4 weeks and 3 months after the administration are shown in Table 5.

SMILES | death cases (Wister-strain male rats) | adverse influence on the liver or spleen organ ([1]; 4 g/kg into the tail vein, 3 months) | Residual Rate of perfluorobicyclo compound ([1]; Liver) | Residual Rate of perfluorobicyclo compound ([1]; Spleen)
FC(F)(F)C(F)(F)C1(F)N2C(F)(F)C(F)(F)C(F)(F)C(F)(F)C2(F)C(F)(F)C(F)(F)C1(F)F (centres unmarked) [perfluoro-4-ethyloctahydroquinolidine] | no death case |  |  | 
FC(F)(F)C1(F)N2C(F)(F)C(F)(F)C(F)(F)C(F)(F)C2(F)C(F)(F)C(F)(F)C1(F)F (centres unmarked) [perfluoro-4-methyloctahydroquinolidine] | no death case | no evidence of adverse influence on the liver or spleen organ | 0.30% | 0.09%
